A word on the Kd: it is the concentration at which binding is half-saturated. Low readings indicate tighter binding, high ones weaker binding. By stoichiometry N is commonly meant a count of units in the complex or per binding partner.

Test [1] concerns the target T1, SulE (Hansschlegelia zhihuaiae, UniProt G9I933, P80R).
T1 construct: pET-29a(+), E. coli BL21(DE3), C-terminal His6 tag; full-length precursor 398 aa, predicted signal peptide cleavage Ala37/Glu38; homodimer, lid loop of one subunit covers active site of the other; residues 12-360 (mature count) seen in crystal
Kind of test: SPR (Biacore T200, protein amine-coupled to CM7 chip), steady-state affinity. It counts as binding. A general note: SPR reads the build-up and loss of mass on a sensor chip optically.

Test [2] deals with T2, SulE (Hansschlegelia zhihuaiae, UniProt G9I933).
T2 construct: pET-29a(+), E. coli BL21(DE3), C-terminal His6 tag; full-length precursor 398 aa, predicted signal peptide cleavage Ala37/Glu38; homodimer, lid loop of one subunit covers active site of the other; residues 12-360 (mature count) seen in crystal
T2 sequence (G9I933 entry or part of it): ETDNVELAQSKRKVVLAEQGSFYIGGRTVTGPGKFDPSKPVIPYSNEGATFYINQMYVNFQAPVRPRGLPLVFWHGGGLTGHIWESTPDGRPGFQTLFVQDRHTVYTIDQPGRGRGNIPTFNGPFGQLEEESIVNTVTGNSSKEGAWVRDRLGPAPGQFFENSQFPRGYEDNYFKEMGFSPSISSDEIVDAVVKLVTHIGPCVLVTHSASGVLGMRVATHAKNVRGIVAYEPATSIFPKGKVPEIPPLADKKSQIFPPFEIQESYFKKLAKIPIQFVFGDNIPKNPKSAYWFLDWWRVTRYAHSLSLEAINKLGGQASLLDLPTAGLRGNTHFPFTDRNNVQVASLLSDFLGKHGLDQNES
The test is described as above. It counts as binding.

Test [3] deals with T2, SulE. Kind of test: X-ray crystal structure (co-crystal with CE, hydrolysed in crystallisation). It is filed as binding. As to conditions: 5 mM CE, 4 °C, pH 5.5; active site.
Test [4] addresses T3, SulE (Hansschlegelia zhihuaiae, UniProt G9I933, S245A/H369A).
T3 construct: pET-29a(+), E. coli BL21(DE3), C-terminal His6 tag; full-length precursor 398 aa, predicted signal peptide cleavage Ala37/Glu38; homodimer, lid loop of one subunit covers active site of the other; residues 12-360 (mature count) seen in crystal
Kind of test: X-ray crystal structure (co-crystal). It counts as binding. As to conditions: 5 mM substrate, 4 °C, pH 7.0; active site, catalytically dead mutant.

For test [5], the target named is T4, SulE (Hansschlegelia zhihuaiae, UniProt G9I933, P80R/S245A/H369A).
T4 construct: pET-29a(+), E. coli BL21(DE3), C-terminal His6 tag; full-length precursor 398 aa, predicted signal peptide cleavage Ala37/Glu38; homodimer, lid loop of one subunit covers active site of the other; residues 12-360 (mature count) seen in crystal
T4 sequence (G9I933 entry or part of it P80R/S245A/H369A): as the sequence (G9I933 entry or part of it) above, with P43R, S208A, H332A counted along it
Kind of test: X-ray crystal structure (co-crystal). It counts as binding. The settings on record: 5 mM substrate, 4 °C, pH 7.0; active site, catalytically dead mutant.

The target in test [6] is SulE (wild-type esterase from Hansschlegelia zhihuaiae S113) (Hansschlegelia zhihuaiae S113). Kind of test: crystal structure; X-ray crystal structures of purified SulE and mutants; apo-SulE at 1.46 Å, space group P21, two monomers in the asymmetric unit; sitting-drop vapor diffusion at 4 °C; apo-SulE in 0.1 M citric acid-trisodium citrate pH 5.5, 20% PEG 4000; cocrystals and P44R mutants in 0.1 M ammonium tartrate dibasic pH 7.0, 12-15% PEG 3350, with 5 mM substrate.

T3 sequence (G9I933 entry or part of it S245A/H369A): as the sequence (G9I933 entry or part of it) above, with S208A, H332A counted along it
T1 sequence (G9I933 entry or part of it P80R): as the sequence (G9I933 entry or part of it) above, with P43R counted along it

As to `COC(=O)c1ccccc1CS(=O)(=O)NC(=O)Nc1nc(OC)cc(OC)n1` [BM, bensulfuron-methyl], the dissociation constant Kd in test [1] turned out to be 5.75 µM; in test [2] it was 6.34 µM. On to `COc1cc(Cl)nc(NC(=O)NS(=O)(=O)c2ccccc2C(=O)O)n1` [CA, chlorimuron acid], for which the “X-ray crystal structure (co-crystal with CE, hydrolysed in crystallisation)” value in test [3] is “crystal structures of wild-type SulE in complex with CA”.

With `CCOC(=O)c1ccccc1S(=O)(=O)NC(=O)Nc1nc(Cl)cc(OC)n1` [CE, chlorimuron-ethyl], the dissociation constant (Kd) was 1.36 µM in test [1] and 5.29 µM in test [2]. Consider `CCOc1nc(NC)nc(NC(=O)NS(=O)(=O)c2ccccc2C(=O)OC)n1` [EM, ethametsulfuron-methyl], for which, in test [4], the “X-ray crystal structure (co-crystal)” value is “mutant S209A/H333A in complex with MM, SM, TM, TrM, EM, BM, and CE”. With `COC(=O)c1ccccc1S(=O)(=O)NC(=O)Nc1nc(C)nc(OC)n1` [MM, metsulfuron-methyl], the Kd in test [1] is 2.89 µM; in test [2] it was 5.58 µM. The “X-ray crystal structure (co-crystal)” value in test [5] was “the triple mutant P44R/S209A/H333A in complex with MM, CE, and TM”; in test [4] it was “mutant S209A/H333A in complex with MM, SM, TM, TrM, EM, BM, and CE”. As to `COC(=O)c1sccc1S(=O)(=O)NC(=O)Nc1nc(C)nc(OC)n1` [TM, thifensulfuron-methyl], the values for the Kd in test [1] and in test [2] were 7.25 µM and 8.85 µM, respectively. Take `COC(=O)c1ccccc1S(=O)(=O)NC(=O)N(C)c1nc(C)nc(OC)n1` [TrM, tribenuron-methyl]: the “X-ray crystal structure (co-crystal)” value in test [4] is “mutant S209A/H333A in complex with MM, SM, TM, TrM, EM, BM, and CE”. In the case of “SulE (wild-type esterase from Hansschlegelia zhihuaiae S113) (enzyme)”, the stoichiometry N in test [6] amounted to 2.

(Values after publication PMC10356948, “Crystal structures of herbicide-detoxifying esterase reveal a lid loop affecting substrate binding and activity” (Nature Communications, 2023).)
